Data from publication PMC11542593, “Vascular endothelial growth factor receptor 2 as a potential host target for the inhibition of enterovirus replication” (Journal of Virology, 2024).
Counter-ions that a name gives are not always drawn.

Legend:
in vitro = settings: human
Description: Fig. S1. (A) RD cells were treated with the indicated concentrations of inhibitors and incubated at 37°C for 24 h. CellTiter‐Glo® luminescent cell viability assay was used to measure the CC50 of selected inhibitors. […] (B) RD cells treated with the selected inhibitors (10 μM) were inoculated with EV-A71 at an MOI of 0.01. At 48 hpi, cells were harvested to detect the expression level of VP1 by western blotting.

EV-A71 [1] = assay: Cytopathic effect (CPE) inhibition assay in RD cells; type: cell-based, Human enterovirus A71; settings: EV-A71, RD cells; for EC50: Enterovirus A, EVA71, read-out: EC50, compound concentration required to achieve 50% protection from virus-induced cytopathogenicity
EV-A71 [2] = assay: Viral load reduction assay in RD cells (RT-qPCR, TCID50, VP1 Western blot); type: cell-based, Human enterovirus A71; settings: for EV-A71 viral load and viral titer, dose dependence: indicated noncytotoxic concentrations, MOI 0.1, 24 h; for EV-A71 viral load and viral titer in cell lysates and supernatant: 10 μM, MOI 0.01, 24 h
Description: Detection of cellular mRNA expression and viral load was performed as described previously ([24]). In brief, the infected or mock-infected cells were lysed and applied to total RNA extraction by using the MiniBEST Universal RNA Extraction Kit (TaKaRa, Code No.9767). Viral RNA in the supernatant was extracted with the MiniBEST Viral RNA Extraction Kit (TaKaRa, Code No.9766). Reverse transcription was performed using the PrimeScript RT reagent Kit (TaKaRa, Code No.PR037A) with an oligo (dT) primer. The resultant cDNAs were used for qPCR assay with the Light Cycler 480 SYBR Green I Master Mix (Roche) to measure the mRNA expression level of cellular genes or viral load in supernatants. The relative viral gene copy was determined by RT-qPCR, using GAPDH as an internal reference.
The viral titer in the indicated samples was determined by TCID50 assay as described previously ([25]). Briefly, serially diluted samples from 10^−1 to 10^−8 in DMEM were inoculated to RD cells, BGMK cells, or MRC-5 in 96‐well plates. The cells were then incubated for 2 to 3 days at 37°C. TCID50 was calculated by counting the wells with cytopathic effect in infected cells using the Reed–Muench method.
(§1) Western blot analysis was performed as described previously ([26]). In brief, the indicated cell samples were lysed in RIPA buffer supplemented with protease inhibitors (Thermo Fisher Scientific, 78430). The cell lysates were then separated in 10% SDS-PAGE and transferred to a 0.45-µm nitrocellulose membrane. After blocking, the membrane was incubated with an against VP1 antibody (GeneTex, GTX132339), VEGFR1 antibody (Abcam, ab32152), VEGFR2 antibody (Abcam, ab134191), phosphorylated VEGFR2 antibody (Tyr951) (CST 4991), VEGFR3 antibody (Beyotime, AF6918), Akt antibody (CST 4685), phosphorylated Akt antibody (CST 4060), or GAPDH antibody (GeneTex, GTX627408) diluted 1:5,000 in primary antibody dilution buffer overnight at 4°C, followed by corresponding secondary staining. The blots were visualized by western horseradish peroxidase substrate and imaged with Gel Doc XR+.
The results represent cell viability in the EV-A71-infected RD cells or 2D human intestinal organoids treated with DMSO (Negative control), Pirodavir (Positive control), or indicated VEGFR inhibitor (10 µM) relative to those in mock-infected RD cells or 2D human intestinal organoids. […] Significant inhibition of EV-A71 infection was found for both cell lysate (left) and supernatant (right) using RT-qPCR analysis. The results represent the viral load in the cells treated with indicated inhibitors relative to that in DMSO-treated cells. (C) Viral titer was also determined for inhibitor-treated samples in TCID50 assays. […] (D) Representative images of immunofluorescence assay for selected inhibitors using Rabbit anti‐VP1 antibody (green). Nuclei are counterstained with DAPI (blue). Scale bar, 50 µm.
Nuclei are counterstained with DAPI (blue). Scale bar, 50 µm.
Fig. S2. […] The results represent the viral load in the cells treated with indicated concentration of VEGFR inhibitors relative to that in DMSO-treated cells. Viral titer was also determined for samples treated with indicated concentrations of VEGFR inhibitors in TCID50 assays.
(§2) Fig. S7. Viral reduction in RD cells with Src inhibitor treatment. […] Significant inhibition of EV-A71 infection was found for both cell lysate (left) and supernatant (middle) using RT-qPCR analysis. The results represent the viral load in the cells treated with Dasatinib relative to that in DMSO-treated cells. Viral titer was also determined for inhibitor-treated samples in TCID50 assays (right). […] (C) VP1 protein levels were measured for samples treated with DMSO or Dasatinib using western blotting.
Fig. S8. Viral reduction in RD cells with Akt inhibitor treatment. […] Significant inhibition of EV-A71 infection was found for both cell lysate (left) and supernatant (middle) using RT-qPCR analysis. […]

Akt phosphorylation = assay: Western blot of phosphorylated Akt and total Akt in RD cells; type: cell-based; settings: total Akt levels unaltered
Description: as §1
as §2, with “S8.” for “S7.”, “Akt” for “Src”, “MK-2206” for “Dasatinib”, “The levels of VP1, phosphorylated Akt and total Akt” for “VP1”, “protein” for “protein levels”
Fig. S9. […] (A) RD cells were infected with EV-A71 at an MOI of 1, and cell lysates were collected at the indicated times. Western blotting assays were then performed to assess the levels of phosphorylated Akt and total Akt. (B)The plasmids pVEGFR2 or pEmpty vector were transfected into RD cells. At the indicated times post-transfection, cells were harvested to detect the expression levels of phosphorylated Akt and total Akt by western blotting. […] Western blotting assays were then performed to assess the levels of phosphorylated Akt and total Akt. […] At 1 hpi, cells were harvested to detect the expression levels of phosphorylated Akt and total Akt by western blotting. […]

EC50 (EV-A71 [1]) [µM]	Compound	CC50 at 24 h (in vitro) [µM]	SI (selectivity index), ratio CC50/EC50 (EV-A71 [1])	CC50 at 24 h (in vitro; RD cells) [µM]	EV-A71 viral load and viral titer, dose dependence (EV-A71 [2])	EV-A71 viral load and viral titer in cell lysates and supernatant (EV-A71 [2])	Akt phosphorylation following EV-A71 infection (Akt phosphorylation)	EV-A71 structural protein VP1 expression (Western blot) (EV-A71 [2]; vs DMSO)
0.44 ± 0.08	CCOC(=O)c1ccc(OCCC2CCN(c3ccc(C)nn3)CC2)cc1 [Pirodavir]	52.9 ± 1.25	120.14					
	CNC(=O)c1ccccc1Sc1ccc2c(/C=C/c3ccccn3)n[nH]c2c1 [Axitinib]			104 ± 17.6	dose-dependent inhibition			
	NC1(c2ccc(-c3nc4ccn5c(=O)[nH]nc5c4cc3-c3ccccc3)cc2)CCC1 [MK-2206, MK-2206 dihydrochloride]					significantly suppressed	significantly inhibited Akt phosphorylation	
	Cc1nc(Nc2ncc(C(=O)Nc3c(C)cccc3Cl)s2)cc(N2CCN(CCO)CC2)n1 [Dasatinib]					significantly reduced		markedly decreased
1.73 ± 0.18	Cc1[nH]c(/C=C2\C(=O)Nc3ccc(F)cc32)c(C)c1C(=O)NC[C@H](O)CN1CCOCC1 [SU14813]		15.23	26.4 ± 6.09	dose-dependent inhibition			

Compound	EC50 (EV-A71 [1]) [µM]	CC50 at 24 h (in vitro) [µM]	SI (selectivity index), ratio CC50/EC50 (EV-A71 [1])	CC50 at 24 h (in vitro; RD cells) [µM]	EV-A71 viral load and viral titer, dose dependence (EV-A71 [2])	EV-A71 viral load and viral titer in cell lysates and supernatant (EV-A71 [2])	Akt phosphorylation following EV-A71 infection (Akt phosphorylation)	EV-A71 structural protein VP1 expression (Western blot) (EV-A71 [2]; vs DMSO)
Cc1cc2c(F)c(Oc3ncnn4cc(OC[C@@H](C)O)c(C)c34)ccc2[nH]1 [Brivanib]	1.94 ± 0.33	41.3 ± 2.83	21.28		dose-dependent inhibition			
